In one assay the target is pim-1 kinase (Homo sapiens, UniProt P11309). Nature of the assay: Measurement of pim-1 kinase inhibitory activity (fluorescent substrate peptide, capillary electrophoresis). In kind it is biochemical. To be noted: 0.1 μM of each compound, 30 μM ATP, 1.5 μM substrate peptide, room temperature 2 hours; Table 1. On the procedure: Measurement of Pim-1 Kinase Inhibitory Activity
The result of the reaction was determined by quantifying the substrate and the phosphorylated reaction product separated by capillary electrophoresis based on difference in charges of the substances (EZ Reader II, Caliper Life Sciences, was used).

The subject of assay [1] is human acute myeloid leukemia MV4.11 cells. Nature of the assay: Cell proliferation-suppressing activity, fluorescence method (Alamar Blue assay). As to conditions: 48 h, compound 1 μM, Alamar Blue assay two days after inoculation, Table 5. In kind it is cell-based. On the procedure:
Measurement of Cell Proliferation-Suppressing Activity (Fluorescence Method)
Each compound was added to a 96-well microtiter plate at a final concentration of 1 μM, then human acute myeloid leukemia MV4.11 cells (10^4 cells) were inoculated, and the Alamar Blue assay was performed two days after the inoculation (measurement of fluorescence: Ex. 535 nm, Em. 590 nm) to measure cell proliferation-suppressing activity.
In general terms: Resazurin is reduced to fluorescent resorufin, in cell work by metabolically active cells.

Counter-ions that a name gives are not always drawn.

This is an account of results in patent US9156827B2, “Anticancer agent” (THE UNIVERSITY OF TOKYO, priority 2010, dated 2015).

Chain of pim-1 kinase (P11309 whole entry): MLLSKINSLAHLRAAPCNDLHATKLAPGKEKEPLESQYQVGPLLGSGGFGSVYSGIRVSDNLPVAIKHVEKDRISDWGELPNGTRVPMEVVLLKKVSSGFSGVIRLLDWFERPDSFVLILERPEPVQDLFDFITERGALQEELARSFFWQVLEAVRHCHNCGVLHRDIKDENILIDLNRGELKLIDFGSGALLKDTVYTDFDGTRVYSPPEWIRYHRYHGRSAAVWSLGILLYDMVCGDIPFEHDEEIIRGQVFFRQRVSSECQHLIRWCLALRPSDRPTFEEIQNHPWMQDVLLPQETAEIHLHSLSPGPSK

One may read the inhibition as the drop in the measured response relative to a control, in per cent. The low end stands for a response near the control, the high end for a response far below the control. `O=C1/C(=C/c2cn(S(=O)(=O)c3ccccc3Cl)c3ccccc23)Oc2c1ccc(O)c2CN1CCNCC1` [Compound A36, (Z)-2-{[1-(2-Chlorophenylsulfonyl)-1H-indol-3-yl]methylene}-6-hydroxy-7-(piperazin-1-ylmethyl)benzofuran-3(2H)-one dihydrochloride] gave an inhibition at 0.1 µM on pim-1 kinase of 99%. The inhibition at 1 µM in assay [1] amounted to 39%.
Compound `O=C1/C(=C/c2cn(S(=O)(=O)c3c(Cl)cccc3Cl)c3ccccc23)Oc2c1ccc(O)c2CN1CCNCC1` [Compound A37, (Z)-2-{[1-(2,6-Dichlorophenylsulfonyl)-1H-indol-3-yl]methylene}-6-hydroxy-7-(piperazin-1-ylmethyl)benzofuran-3(2H)-one dihydrochloride] registered an inhibition at 0.1 µM on pim-1 kinase of 99%. Besides, the inhibition at 1 µM in assay [1] is 55%.
In the case of `O=C1/C(=C/c2cn(S(=O)(=O)c3cccc(Cl)c3Cl)c3ccccc23)Oc2c1ccc(O)c2CN1CCNCC1` [Compound A38, (Z)-2-{[1-(2,3-Dichlorophenylsulfonyl)-1H-indol-3-yl]methylene}-6-hydroxy-7-(piperazin-1-ylmethyl)benzofuran-3(2H)-one dihydrochloride], the inhibition at 0.1 µM against pim-1 kinase stood at 99%. This compound also gave an inhibition at 1 µM in assay [1] of 43%.
On pim-1 kinase, `O=C1/C(=C/c2cn(S(=O)(=O)c3ccc(Cl)cc3Cl)c3ccccc23)Oc2c1ccc(O)c2CN1CCNCC1` [Compound A39, (Z)-2-{[1-(2,4-Dichlorophenylsulfonyl)-1H-indol-3-yl]methylene}-6-hydroxy-7-(piperazin-1-ylmethyl)benzofuran-3(2H)-one dihydrochloride] returned an inhibition at 0.1 µM of 99%. Also, at 1 µM the inhibition in assay [1] was 51%.
Taken in the same sequence, the figures for `O=C1/C(=C/c2c[nH]c3ncccc23)Oc2c1ccc(O)c2CN1CCOCC1` [Compound A44, (Z)-2-[(1H-Pyrrolo[2,3-b]pyridin-3-yl)methylene]-6-hydroxy-7-(morpholinomethyl)benzofuran-3(2H)-one] were 27% and 46%.
The like results for `O=C1CN(Cc2c(O)ccc3c2O/C(=C\c2c[nH]c4ncccc24)C3=O)CCN1` [Compound A45, (Z)-4-({2-[(1H-Pyrrolo[2,3-b]pyridin-3-yl)methylene]-6-hydroxy-3-oxo-2,3-dihydrobenzofuran-7-yl}methyl)piperazin-2-one] were, in that order, 83% and 15%.
